Results: patent US10294202B2, “Pyrrolidinones as herbicides” (FMC Corporation, priority 2013, dated 2019)

Tests used:
[1] = tested on: nutsedge, yellow; assay: Test C pre-/postemergence herbicide test; format: in vivo, Cyperus esculentus
Method in brief: (§1)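 Two application timings ran in parallel with identically formulated test chemicals (non-phytotoxic solvent, surfactant included): spray on seeded loam–sand soil, and spray on emerged plants 2 to 18 cm high. Evaluation at 13 to 15 days compared each species with controls, rated from 0 up to 100.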

[2] = tested on: lambsquarters; assay: Test C pre-/postemergence herbicide test; format: in vivo, Chenopodium album
Method in brief: as §1

[3] = tested on: corn; assay: Test A pre-/postemergence herbicide test; format: in vivo, Zea mays; conditions: for Corn plant response rating: Preemergence, visual rating on 0 to 100 scale (0 no effect, 100 complete control)
Method in brief: (§2)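 Directed soil spray to seeded pots (preemergence) or spray onto one- to two-leaf seedlings 2–10 cm tall (postemergence); loam/sand substrate throughout. Evaluated visually after about 10 days against untreated plants, 0 = no effect, 100 = complete control.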

[4] = tested on: morningglory; assay: Test C pre-/postemergence herbicide test; format: in vivo, Ipomoea coccinea
Method in brief: as §1

[5] = tested on: wheat (winter wheat); assay: Test C pre-/postemergence herbicide test; format: in vivo, Triticum aestivum
Method in brief: as §1

[6] = tested on: barnyardgrass; assay: Test A pre-/postemergence herbicide test; format: in vivo, Echinochloa crus-galli; conditions: for Barnyardgrass plant response rating: Preemergence, visual rating on 0 to 100 scale (0 no effect, 100 complete control)
Method in brief: as §2

[7] = tested on: velvetleaf; assay: Test C pre-/postemergence herbicide test; format: in vivo, Abutilon theophrasti
Method in brief: as §1

[8] = tested on: rice; assay: Test B flooded paddy test; format: in vivo, Oryza sativa; conditions: 250 g ai/ha, Flood; scale of 0 to 100 where 0 is no effect and 100 is complete control
Method in brief: (§3)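 In-water application to pots flooded 3 cm deep, plants at 2-leaf stage. Held in greenhouse 13–15 days at constant flood depth. Scored 0–100 by eye against controls.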

[9] = tested on: giant foxtail; assay: Test A pre-/postemergence herbicide test; format: in vivo, Setaria faberii; conditions: for Foxtail, Giant plant response rating: Preemergence, visual rating on 0 to 100 scale (0 no effect, 100 complete control)
Method in brief: as §2

[10] = tested on: sedge, umbrella; assay: Test B flooded paddy test; format: in vivo, Cyperus difformis; conditions: 250 g ai/ha, Flood; scale of 0 to 100 where 0 is no effect and 100 is complete control
Method in brief: as §3

[11] = tested on: foxtail, giant; assay: Test C pre-/postemergence herbicide test; format: in vivo, Setaria faberii
Method in brief: as §1

[12] = Postemergence, 31 g ai/ha, scale 0 (no effect) to 100 (complete control)
[13] = Postemergence, 62 g ai/ha, scale 0 to 100 (0 no effect, 100 complete control)
[14] = Postemergence, 125 g ai/ha, scale 0 to 100 (0 no effect, 100 complete control)
[15] = Postemergence, 250 g ai/ha, scale 0 to 100 (0 no effect, 100 complete control)
[16] = Preemergence, 62 g ai/ha, scale 0 to 100
[17] = Preemergence, 125 g ai/ha, scale 0 to 100 (0 no effect, 100 complete control)
[18] = Postemergence, 125 g ai/ha, 0 to 100 scale, 0 no effect, 100 complete control
[19] = Postemergence, 500 g ai/ha, 0 to 100 scale (0 no effect, 100 complete control)
[20] = preemergence, 500 g ai/ha, 0 to 100 scale
[21] = preemergence, 500 g ai/ha, 0 to 100 scale (0 no effect, 100 complete control)
[22] = Preemergence, 31 g ai/ha, scale 0 to 100 (0 no effect, 100 complete control)
[23] = Preemergence, 31 g ai/ha, scale 0 to 100, 0 is no effect and 100 is complete control

Structure (SMILES): O=C1NCC(c2ccc(Cl)c(F)c2)C1C(=O)Nc1cccc(F)c1F (centres unmarked) [Compound 52]
- Plant response rating, Nutsedge, Yellow [1, 12]: 10
- Plant response rating, Nutsedge, Yellow [1, 13]: 10
- Plant response rating, Nutsedge, Yellow [1, 14]: 10
- Plant response rating, Nutsedge, Yellow [1, 15]: 10
- Plant response rating, Nutsedge, Yellow [1, 16]: 25
- Plant response rating, Nutsedge, Yellow [1, 17]: 25
- Plant response rating, Lambsquarters [2, 13]: 10
- Plant response rating, Lambsquarters [2, 14]: 40
- Plant response rating, Lambsquarters [2, 15]: 40
- Plant response rating, Lambsquarters [2, 16]: 40
- Plant response rating, Lambsquarters [2, 17]: 70
- Plant response rating, Corn [3, 18]: 0
- Plant response rating, Corn [3, 19]: 30
- Corn plant response rating ([3]; 125 g ai/ha): 0
- Plant response rating, Corn [3, 20]: 0
- Plant response rating, Morningglory [4, 12]: 5
- Plant response rating, Morningglory [4, 13]: 10
- Plant response rating, Morningglory [4, 14]: 10
- Plant response rating, Morningglory [4, 15]: 30
- Plant response rating, Morningglory [4, 16]: 0
- Plant response rating, Morningglory [4, 17]: 0
- Plant response rating, Wheat [5, 12]: 0
- Plant response rating, Wheat [5, 13]: 0
- Plant response rating, Wheat [5, 14]: 0
- Plant response rating, Wheat [5, 15]: 0
- Plant response rating, Wheat [5, 16]: 0
- Plant response rating, Wheat [5, 17]: 10
- Plant response rating, Barnyardgrass [6, 18]: 80
- Plant response rating, Barnyardgrass [6, 19]: 80
- Barnyardgrass plant response rating ([6]; 125 g ai/ha): 80
- Plant response rating, Barnyardgrass [6, 21]: 90
- Plant response rating, Velvetleaf [7, 12]: 10
- Plant response rating, Velvetleaf [7, 13]: 20
- Plant response rating, Velvetleaf [7, 14]: 20
- Plant response rating, Velvetleaf [7, 15]: 35
- Plant response rating, Velvetleaf [7, 16]: 5
- Plant response rating, Velvetleaf [7, 17]: 5
- Plant response rating, Rice [8]: 25
- Plant response rating, Foxtail, Giant [9, 18]: 80
- Plant response rating, Foxtail, Giant [9, 19]: 80
- Foxtail, Giant plant response rating ([9]; 125 g ai/ha): 80
- Plant response rating, Foxtail, Giant [9, 20]: 90
- Plant response rating, Sedge, Umbrella [10]: 85
- Plant response rating, Foxtail, Giant [11, 12]: 0
- Plant response rating, Foxtail, Giant [11, 13]: 0
- Plant response rating, Foxtail, Giant [11, 14]: 0
- Plant response rating, Foxtail, Giant [11, 15]: 25
- Plant response rating, Foxtail, Giant [11, 16]: 80
- Plant response rating, Foxtail, Giant [11, 17]: 80
- Foxtail, Giant plant response rating [11, 22]: 55
- Plant response rating, Foxtail, Giant ([11]; Preemergence, 250 g ai/ha, scale 0 to 100 (0 no effect, 100 complete control)): 85

Structure (SMILES): O=C1NCC(c2ccc(F)c(Cl)c2)C1C(=O)Nc1ccccc1F (centres unmarked) [Compound 60]
- Plant response rating, Nutsedge, Yellow [1, 12]: 0
- Plant response rating, Nutsedge, Yellow [1, 13]: 0
- Plant response rating, Nutsedge, Yellow [1, 14]: 5
- Plant response rating, Nutsedge, Yellow [1, 16]: 0
- Plant response rating, Nutsedge, Yellow [1, 17]: 15
- Plant response rating, Lambsquarters [2, 12]: 5
- Plant response rating, Lambsquarters [2, 13]: 20
- Plant response rating, Lambsquarters [2, 14]: 20
- Plant response rating, Lambsquarters [2, 17]: 10
- Plant response rating, Corn [3, 18]: 0
- Plant response rating, Corn [3, 19]: 60
- Corn plant response rating ([3]; 125 g ai/ha): 0
- Plant response rating, Corn [3, 20]: 0
- Plant response rating, Morningglory [4, 12]: 5
- Plant response rating, Morningglory [4, 13]: 10
- Plant response rating, Morningglory [4, 14]: 10
- Plant response rating, Morningglory [4, 16]: 10
- Plant response rating, Morningglory [4, 17]: 10
- Plant response rating, Wheat [5, 12]: 0
- Plant response rating, Wheat [5, 13]: 0
- Plant response rating, Wheat [5, 14]: 5
- Plant response rating, Wheat [5, 16]: 0
- Plant response rating, Wheat [5, 17]: 0
- Plant response rating, Barnyardgrass [6, 18]: 80
- Plant response rating, Barnyardgrass [6, 19]: 90
- Barnyardgrass plant response rating ([6]; 125 g ai/ha): 80
- Plant response rating, Barnyardgrass [6, 21]: 90
- Plant response rating, Velvetleaf [7, 12]: 0
- Plant response rating, Velvetleaf [7, 13]: 0
- Plant response rating, Velvetleaf [7, 14]: 5
- Plant response rating, Velvetleaf [7, 16]: 0
- Plant response rating, Velvetleaf [7, 17]: 0
- Plant response rating, Rice [8]: 0
- Plant response rating, Foxtail, Giant [9, 18]: 80
- Plant response rating, Foxtail, Giant [9, 19]: 80
- Foxtail, Giant plant response rating ([9]; 125 g ai/ha): 90
- Plant response rating, Foxtail, Giant [9, 20]: 90
- Plant response rating, Sedge, Umbrella [10]: 60
- Plant response rating, Foxtail, Giant [11, 12]: 0
- Plant response rating, Foxtail, Giant [11, 13]: 15
- Plant response rating, Foxtail, Giant [11, 14]: 30
- Plant response rating, Foxtail, Giant [11, 16]: 85
- Plant response rating, Foxtail, Giant [11, 17]: 90
- Foxtail, Giant plant response rating [11, 22]: 70

Structure (SMILES): O=C1NCC(c2cccc(OC(F)(F)F)c2)C1C(=O)Nc1ccccc1F (centres unmarked) [Compound 69]
- Nutsedge, Yellow plant response rating [1, 23]: 0
- Plant response rating, Nutsedge, Yellow [1, 17]: 0
- Plant response rating (scale of 0 to 100), Nutsedge, Yellow ([1]; Preemergence, 250 g ai/ha): 10
- Lambsquarters plant response rating [2, 23]: 35
- Plant response rating, Lambsquarters [2, 16]: 35
- Plant response rating, Lambsquarters [2, 17]: 65
- Plant response rating (scale of 0 to 100), Lambsquarters ([2]; Preemergence, 250 g ai/ha): 85
- Plant response rating, Corn [3, 18]: 20
- Plant response rating, Corn [3, 19]: 90
- Corn plant response rating ([3]; 125 g ai/ha): 0
- Plant response rating, Corn [3, 20]: 0
- Morningglory plant response rating [4, 23]: 20
- Plant response rating, Morningglory [4, 17]: 25
- Plant response rating (scale of 0 to 100), Morningglory ([4]; Preemergence, 250 g ai/ha): 25
- Wheat plant response rating [5, 23]: 0
- Plant response rating, Wheat [5, 16]: 0
- Plant response rating, Wheat [5, 17]: 5
- Plant response rating (scale of 0 to 100), Wheat ([5]; Preemergence, 250 g ai/ha): 5
- Plant response rating, Barnyardgrass [6, 18]: 70
- Plant response rating, Barnyardgrass [6, 19]: 80
- Barnyardgrass plant response rating ([6]; 125 g ai/ha): 80
- Plant response rating, Barnyardgrass [6, 21]: 90
- Velvetleaf plant response rating [7, 23]: 30
- Plant response rating, Velvetleaf [7, 16]: 30
- Plant response rating, Velvetleaf [7, 17]: 30
- Plant response rating (scale of 0 to 100), Velvetleaf ([7]; Preemergence, 250 g ai/ha): 30
- Plant response rating, Rice [8]: 30
- Plant response rating, Foxtail, Giant [9, 18]: 80
- Plant response rating, Foxtail, Giant [9, 19]: 80
- Foxtail, Giant plant response rating ([9]; 125 g ai/ha): 90
- Plant response rating, Foxtail, Giant [9, 20]: 90
- Plant response rating, Sedge, Umbrella [10]: 65
- Foxtail, Giant plant response rating [11, 23]: 75
- Plant response rating, Foxtail, Giant [11, 16]: 85
- Plant response rating, Foxtail, Giant [11, 17]: 85
- Plant response rating (scale of 0 to 100), Foxtail, Giant ([11]; Preemergence, 250 g ai/ha): 90
